# Results reported in publication PMC8092876, “A Leucyl-tRNA Synthetase Inhibitor with Broad-Spectrum Antimycobacterial Activity” (Antimicrobial Agents and Chemotherapy, 2021).
# What was measured:
# [1] = Kinetic aqueous solubility assay (CLND); type: physicochemical; settings: aqueous buffer, kinetic from dmso stock, pH 7.4 phosphate-buffered saline
# Method: The aqueous solubility of test compounds was measured using an in-house method utilizing quantification via chemiluminescent nitrogen detection (CLND): 5 μl of 10 mM DMSO stock solution was diluted to 100 μl with pH 7.4 phosphate-buffered saline, equilibrated for 1 h at room temperature, and filtered through Millipore Multiscreen HTS-PCF filter plates (MSSL BPC). The eluent is quantified by a suitably calibrated flow injection chemiluminescent nitrogen detection (CLND or CAD). This assay has a dynamic range between the lower detection limit of 1 and 500 μM, governed by the protocol’s 1:20 dilution into pH 7.4 phosphate buffer solution from nominal 10 mM DMSO stock.
# ChromlogD assay = type: physicochemical; settings: reversed phase HPLC column (Gemini NX C18), pH 7.4
# Method: The Chromatographic Hydrophobicity Index (CHI) values are measured using reversed phase high-performance liquid chromatography (HPLC) column (50 by 2 mm […] Gemini NX C18, Phenomenex, UK) with fast acetonitrile gradient at starting mobile phase of pHs 2, 7.4, and 10.5. CHI values are derived directly from the gradient retention times by using a calibration line obtained for standard compounds. The CHI value approximates to the volume percent organic concentration when the compound elutes. CHI is linearly transformed into ChromlogD by least-square fitting of experimental CHI values to calculated ClogP values for over 20,000 research compounds using the following formula: ChromlogD = (0.0857 × CHI) − 2.00. The average error of the assay is ±3 CHI unit or ±0.25 ChromlogD.
# [2] = tested on: M. abscessus Bamboo RM1 (LeuS A428P); assay: microbe, parasite or virus in culture; type: cell-based; settings: Mycobacteroides abscessus
# [3] = tested on: M. abscessus subsp. abscessus K21; assay: MIC assay in 96-well plate format; type: cell-based; settings: Mycobacteroides abscessus; M. abscessus subsp. abscessus K21, clinical isolate, infection model
# [4] = tested on: M. abscessus subsp. bolletii M232; assay: MIC assay in 96-well plate format; type: cell-based; settings: Mycobacteroides abscessus; M. abscessus subsp. bolletii M232, clinical isolate
# [5] = tested on: M. abscessus subsp. abscessus M422; assay: MIC assay in 96-well plate format; type: cell-based; settings: Mycobacteroides abscessus; M. abscessus subsp. abscessus M422, clinical isolate
# [6] = tested on: M. abscessus subsp. abscessus M199; assay: MIC assay in 96-well plate format; type: cell-based; settings: Mycobacteroides abscessus; M. abscessus subsp. abscessus M199, clinical isolate
# [7] = tested on: M. abscessus Bamboo RM5 (LeuS V417M); assay: microbe, parasite or virus in culture; type: cell-based; settings: RM5, batch 2, LeuS V417M
# [8] = tested on: M. abscessus Bamboo RM2 (LeuS K502E); assay: microbe, parasite or virus in culture; type: cell-based; settings: Mycobacteroides abscessus
# [9] = tested on: M. abscessus subsp. massiliense CCUG 48898T; assay: MIC assay in 96-well plate format; type: cell-based; settings: Mycobacteroides abscessus, culture collection reference strain
compound,measurement,setting,value
CC(C)(O)COc1ccc(Br)c2c1B(O)O[C@@H]2CN [EC/11770],solubility at 1 h,[1],349 µM
same,chromatographic logD,ChromlogD assay,0.97
same,MIC,[2],> 100 µM
same,MIC,[3],0.6 µM
same,MIC,[4],0.67 µM
same,MIC,[5],0.33 µM
same,MIC,[6],0.93 µM
same,MIC,[7]; Mycobacteroides abscessus,60 to 75 µM
same,MIC,[7],75 µM
same,MIC,[8],> 100 µM
same,MIC,[9],0.71 µM
